Source: patent US12428413B2 (CHDI Foundation, Inc., priority 2019, dated 2025)
Read-outs that look alike come from different tables or passages of the source.

Experiments:
[1] = molecular target: human catalytic domain ROCK II protein (amino acids 5-554) with a N-terminal GST tag (Homo sapiens, UniProt O75116); test: biochemical
[2] = tested on: cellular ROCK activity (cofilin phosphorylation at Ser3) in A7r5 rat smooth muscle cells; test: Cellular ROCK activity: cofilin (Ser3) phosphorylation, In-Cell Western assay; type: cell-based; settings: 1 hour compound incubation, phospho-cofilin (Ser3), read-out: CELL_IC50
Protocol: The potency of Rho-associated protein kinase (ROCK) inhibitors was quantified by measuring cofilin phosphorylation levels at Serine 3 (Ser3) as a measure of cellular ROCK activity by In-Cell Western assay. […] The assay plate was imaged and quantified on the Odyssey imager (LICOR Biosciences).
ROCK inhibitor compound plate preparation. […] Stock compounds and control are added directly to ECHO plate (Labcyte) by Janus.
A7r5 cell culture and plating. A7r5 cells were cultured according to standard cell culture protocols in A7r5 growth media (DMEM with Glutamax and 10% FBS). […] 45 μl of re-suspended A7r5 cells were plated at 3000 cells/well in a sterile, μclear, black, F-bottom, 384-well microplate (Greiner bio-one). Seeded cells allowed to settle in wells on the bench for 1 hour before incubation at 37° C., 5% CO2 overnight.
Assay reagent and antibody preparations. Wash buffer was prepared by addition of Tween-20 to Dulbecco's Phosphate Buffered Saline (DPBS) (1×) without calcium and magnesium to make 1% Tween-20 as final concentration. Blocking buffer was prepared by addition of TritonX-100 to SeaBlock buffer (ThermoFisher) to make 0.3% TritonX-100 as final concentration. […] Secondary antibody mix was prepared by diluting donkey anti-rabbit 800CW antibody (LICOR Biosciences) 1:1000 in SeaBlock buffer.
Assay procedure. Compound plate was diluted by addition of 19 μl/well compound dilution buffer (DMEM with Glutamax) using 125 μl 16-channel Matrix electronic pipette. 5 μl diluted compound was stamped from compound plate to assay plate containing A7r5 cells using Bravo (384-well head from Agilent) liquid handler and incubated at 37° C., 5% CO2 for 1 hour. Cells were fixed by addition of 5 μl 37% formaldehyde using 125 μl 16-channel Matrix electronic pipette and incubation for 20 min at room temperature. The assay plate was washed 5× with 60 μl/well wash buffer. […] Next, the assay plate was sealed, centrifuged at 1000 rpm for 5 seconds and incubated at 4° C. overnight on an orbital shaker at 300 rpm. […] The assay plate was centrifuged at 1000 rpm for 5 seconds and incubated on an orbital shaker at 300 rpm for 60 min at room temperature. Finally, assay plate was washed and wells left empty before measurement of 700 nm and 800 nm fluorescence intensities on Odyssey imager set at 4.0 mm focus offset.

Chain of human catalytic domain ROCK II protein (amino acids 5-554) with a N-terminal GST tag (O75116 5-554): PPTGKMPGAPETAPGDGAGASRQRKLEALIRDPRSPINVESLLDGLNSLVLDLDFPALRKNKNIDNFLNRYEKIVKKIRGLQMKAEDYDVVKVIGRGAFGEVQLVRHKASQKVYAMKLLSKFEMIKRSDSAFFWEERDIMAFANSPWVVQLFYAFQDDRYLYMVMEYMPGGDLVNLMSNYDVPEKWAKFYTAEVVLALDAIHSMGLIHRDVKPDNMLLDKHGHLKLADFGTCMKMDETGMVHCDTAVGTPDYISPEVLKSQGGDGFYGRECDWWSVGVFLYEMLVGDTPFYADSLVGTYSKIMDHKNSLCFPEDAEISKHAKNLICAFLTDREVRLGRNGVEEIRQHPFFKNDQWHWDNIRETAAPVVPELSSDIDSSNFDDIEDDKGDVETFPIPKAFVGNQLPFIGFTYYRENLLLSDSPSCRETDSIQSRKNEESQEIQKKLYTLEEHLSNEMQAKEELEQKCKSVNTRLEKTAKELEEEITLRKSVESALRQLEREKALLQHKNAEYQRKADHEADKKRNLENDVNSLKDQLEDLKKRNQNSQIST

Compound	IC50 [1]	IC50 ([2]; Rattus norvegicus, A7R5, 1 h)	IC50 [2]
CC(NC(=O)N1CCN(c2ccncc2F)CC1)c1cccc(F)c1Cl (single isomer, unassigned) [Example 22, N-(1-(2-Chloro-3-fluorophenyl)ethyl)-4-(3-fluoropyridin-4-yl)piperazine-1-carboxamide]	46.7 nM	1020 nM	–
CC(NC(=O)N1CCN(c2ccncc2F)CC1)c1cccc(F)c1Cl (single isomer, unassigned) [Example 23, N-(1-(2-Chloro-3-fluorophenyl)ethyl)-4-(3-fluoropyridin-4-yl)piperazine-1-carboxamide]	88.8 nM	–	1440 nM
COc1cccc([C@@H](C)NC(=O)N2CCN(c3ccnc(F)c3)C[C@H]2C)c1 [Example 1, (R)-4-(2-Fluoropyridin-4-yl)-N—((R)-1-(3-methoxyphenyl)ethyl)-2-methylpiperazine-1-carboxamide]	6.5 nM	122 nM	–
COc1cccc([C@@H](C)OC(=O)N2CCN(c3ccnc(F)c3)C[C@H]2C)c1 [Example 2, (R)-1-(3-Methoxyphenyl)ethyl (R)-4-(2-fluoropyridin-4-yl)-2-methylpiperazine-1-carboxylate]	30.7 nM	1690 nM	–
COc1ccc(Cl)c([C@@H](C)NC(=O)N2CCN(c3ccnc(F)c3)C[C@H]2C)c1 [Example 3, (R)—N—((R)-1-(2-Chloro-5-methoxyphenyl)ethyl)-4-(2-fluoropyridin-4-yl)-2-methylpiperazine-1-carboxamide]	59.9 nM	2410 nM	–
C[C@@H]1CN(c2ccnc(F)c2)CCN1C(=O)NCc1cccc2occc12 [Example 8, (R)—N-(Benzofuran-4-ylmethyl)-4-(2-fluoropyridin-4-yl)-2-methylpiperazine-1-carboxamide]	22 nM	676 nM	–
Cc1cnc2cccc([C@@H](C)NC(=O)N3CCN(c4ccnc(F)c4)C[C@H]3C)n12 [Example 9, (R)-4-(2-Fluoropyridin-4-yl)-2-methyl-N—((R)-1-(3-methylimidazo[1,2-a]pyridin-5-yl)ethyl)piperazine-1-carboxamide]	12.3 nM	240 nM	–
C[C@@H]1CN(c2ccnc(F)c2)CCN1C(=O)NCc1cccc2nn(C)cc12 [Example 11, (R)-4-(2-Fluoropyridin-4-yl)-2-methyl-N-((2-methyl-2H-indazol-4-yl)methyl)piperazine-1-carboxamide]	32.7 nM	411 nM	–
C[C@@H]1CN(c2ccnc(F)c2)CCN1C(=O)N[C@H](C)c1cccc2c1OCO2 [Example 12, (R)—N—((R)-1-(Benzo[d][1,3]dioxol-4-yl)ethyl)-4-(2-fluoropyridin-4-yl)-2-methylpiperazine-1-carboxamide]	11.5 nM	200 nM	–
C[C@@H]1CN(C(=O)N[C@H](C)c2ccccc2Cl)CCN1c1ccnc(F)c1 [Example 13, (R)—N—((R)-1-(2-Chlorophenyl)ethyl)-4-(2-fluoropyridin-4-yl)-3-methylpiperazine-1-carboxamide]	4790 nM	≥ 5000 nM	–
COc1cccc([C@@H](C)NC(=O)N2[C@H](C)CN(c3ccnc(F)c3)C[C@H]2C)c1 [Example 15, (2R,6R)-4-(2-Fluoropyridin-4-yl)-N—((R)-1-(3-methoxyphenyl)ethyl)-2,6-dimethylpiperazine-1-carboxamide]	75.9 nM	1390 nM	–
COc1cccc([C@@H](C)NC(=O)N2CCN(c3ccncc3F)CC2)c1 [Example 16, (R)-4-(3-fluoropyridin-4-yl)-N-(1-(3-methoxyphenyl)ethyl)piperazine-1-carboxamide]	7.6 nM	122 nM	–
COc1cccc([C@@H](C)OC(=O)N2CCN(c3ccncc3F)CC2)c1 [Example 17, (R)-1-(3-Methoxyphenyl)ethyl 4-(3-fluoropyridin-4-yl)piperazine-1-carboxylate]	32.3 nM	1090 nM	–
COc1cccc([C@@H](C)NC(=O)N2CCN(c3ccncc3F)CC2)c1F [Example 18, (R)—N-(1-(2-Fluoro-3-methoxyphenyl)ethyl)-4-(3-fluoropyridin-4-yl)piperazine-1-carboxamide]	198 nM	2550 nM	–
COc1cccc([C@@H](C)NC(=O)N2CCN(c3ccncc3F)CC2)c1Cl [Example 20]	581 nM	≥ 5000 nM	–
COc1ccc(Cl)c([C@@H](C)NC(=O)N2CCN(c3ccncc3F)CC2)c1 [Example 24, (R)—N-(1-(2-Chloro-5-methoxyphenyl)ethyl)-4-(3-fluoropyridin-4-yl)piperazine-1-carboxamide]	37.5 nM	902 nM	–

Compound	IC50 [1]	IC50 ([2]; Rattus norvegicus, A7R5, 1 h)	IC50 [2]
COc1cccc(CNC(=O)N2CCN(c3ccncc3F)CC2)c1 [Example 25, 4-(3-Fluoropyridin-4-yl)-N-(3-methoxybenzyl)piperazine-1-carboxamide]	52.3 nM	749 nM	–
CC(NC(=O)N1CCN(c2ccncc2F)CC1)c1c(F)cccc1Cl (centres unmarked) [Example 26, N-(1-(2-Chloro-6-fluorophenyl)ethyl)-4-(3-fluoropyridin-4-yl)piperazine-1-carboxamide]	65.5 nM	1160 nM	–
C[C@@H](NC(=O)N1CCN(c2ccncc2F)CC1)c1cccc2c1OCO2 [Example 27, (R)—N-(1-(Benzo[d][1,3]dioxol-4-yl)ethyl)-4-(3-fluoropyridin-4-yl)piperazine-1-carboxamide]	5.8 nM	87.7 nM	–
C[C@@H](NC(=O)N1CCN(c2ccncc2F)CC1)c1cccc2c1CCO2 [Example 28, (R)—N-(1-(2,3-Dihydrobenzofuran-4-yl)ethyl)-4-(3-fluoropyridin-4-yl)piperazine-1-carboxamide]	2.8 nM	27.2 nM	–
C[C@@H](NC(=O)N1CCN(c2ccncc2F)CC1)c1cccc2occc12 [Example 29, (R)—N-(1-(Benzofuran-4-yl)ethyl)-4-(3-fluoropyridin-4-yl)piperazine-1-carboxamide]	4.5 nM	54.1 nM	–
C[C@@H](NC(=O)N1CCN(c2ccncc2F)CC1)c1cccc2c1CC(C)(C)O2 [Example 30, (R)—N-(1-(2,2-Dimethyl-2,3-dihydrobenzofuran-4-yl)ethyl)-4-(3-fluoropyridin-4-yl)piperazine-1-carboxamide]	22.4 nM	301 nM	–
Cc1cc2c([C@@H](C)NC(=O)N3CCN(c4ccncc4F)CC3)cccc2o1 [Example 31, (R)-4-(3-Fluoropyridin-4-yl)-N-(1-(2-methylbenzofuran-4-yl)ethyl)piperazine-1-carboxamide]	3.7 nM	189 nM	–
Cc1cnc2cccc([C@@H](C)NC(=O)N3CCN(c4ccncc4F)CC3)n12 [Example 34, (R)-4-(3-fluoropyridin-4-yl)-N-(1-(3-methylimidazo[1,2-a]pyridin-5-yl)ethyl)piperazine-1-carboxamide]	7.5 nM	104 nM	–
Cc1cnc2cccc([C@H](C)NC(=O)N3CCN(c4ccncc4F)CC3)n12 [Example 35, (S)-4-(3-fluoropyridin-4-yl)-N-(1-(3-methylimidazo[1,2-a]pyridin-5-yl)ethyl)piperazine-1-carboxamide]	142 nM	–	–
C[C@H](NC(=O)N1CCN(c2ccncc2F)C[C@H]1C)c1cccc2nn(C)cc12 [Example 72, (R)-4-(3-Fluoropyridin-4-yl)-2-methyl-N—((S)-1-(2-methyl-2H-indazol-4-yl)ethyl)piperazine-1-carboxamide]	86.6 nM	–	–
COc1cc(F)cc(CN2C[C@H]3CN(c4ccncc4F)CCN3C2=O)c1 [Example 85, (R)-2-(3-Fluoro-5-methoxybenzyl)-7-(3-fluoropyridin-4-yl)hexahydroimidazo[1,5-a]pyrazin-3(2H)-one]	4680 nM	–	–
C[C@@H]1CN(c2ccncc2F)C[C@@H](C)N1C(=O)NCc1ccccc1Cl [Example 92, (2R,6R)—N-(2-Chlorobenzyl)-4-(3-fluoropyridin-4-yl)-2,6-dimethylpiperazine-1-carboxamide]	563 nM	–	–
O=C(NCc1cccc(OC(F)F)c1)N1CCN(c2ccnc(F)c2)CC1 [Example 103]	1060 nM	–	–
COc1cccc(CNC(=O)N2CCN(c3ccnc(F)c3)[C@@H](C)C2)c1 [Example 121]	102 nM	–	–
C[C@H]1CN(C(=O)NCc2cccc(OC(F)F)c2)CCN1c1ccnc(F)c1 [Example 122]	802 nM	–	–
C[C@@H]1CN(c2ccncc2F)CCN1C(=O)N[C@H](C)c1cccc2c1N(C)CCO2 [Example 143]	3070 nM	–	–
